Reference: article PMC12846677 (Viruses, 2025)
Where “and” joins values, the source holds several entries; their conditions need not be identical. Identical values can stand only once. Like-named read-outs stand apart in the source and are kept apart here.

How the values were obtained:
HIV-1IIIB [1] = assay: microbe, parasite or virus in culture; conditions: Human immunodeficiency virus 1, C8166, HIV-1IIIB
NL4-3IN-R263K = assay: microbe, parasite or virus in culture; assay type: cell-based; conditions: Human immunodeficiency virus 1; read-out: EC50
NL4-3 = assay: microbe, parasite or virus in culture; assay type: cell-based; conditions: Human immunodeficiency virus 1, NL43; NL4-3, p24
HIV-1IIIB [2] = assay: Combined antiviral activity assay (p24 ELISA, CompuSyn); assay type: cell-based
HIV-1DRACC017 = assay: microbe, parasite or virus in culture; assay type: cell-based; conditions: for EC50: Human immunodeficiency virus 1, HIV-1DRACC017, p24
HIV-1IIIB [3] = tested on: HIV-1IIIB
drug-resistant strains = assay: microbe, parasite or virus in culture; assay type: cell-based; conditions: Human immunodeficiency virus 1; panel of drug-resistant strains; read-out: EC50 range
HIV-1WAN (CRF01_AE) [4] = conditions: PBMC, p24
[5] = tested on: clinical isolated strains; assay: microbe, parasite or virus in culture; assay type: cell-based; conditions: Human immunodeficiency virus 1, read-out: EC50 range
HIV-1KIZ011 (CRF07_BC) [6] = assay: microbe, parasite or virus in culture; conditions: Human immunodeficiency virus 1, PBMC
HIV-1KIZ011 (CRF07_BC) [7] = conditions: HIV-1KIZ011, PBMC, p24
HIV-1A17 [8] = conditions: HIV-1A17, C8166, p24
HIV-1IIIB [9] = assay: microbe, parasite or virus in culture; assay type: cell-based; conditions: Human immunodeficiency virus 1, MT4, MTT
[10] = Cytotoxicity MTT assay in C8166 cells; assay type: cell-based; conditions: human
[11] = parameters: method as in CTR20240167; conditions: healthy adults, single-dose administration; ref CTR20240167; cited from earlier work
HIV-1_4755-5 [12] = conditions: HIV-1_4755-5, C8166, p24
HIV-1TC-1 (CRF01_AE) [13] = conditions: HIV-1TC-1, PBMC, p24
HIV-1A17 [14] = assay: microbe, parasite or virus in culture; conditions: Human immunodeficiency virus 1, C8166
HIV-1WAN (CRF01_AE) [15] = assay: microbe, parasite or virus in culture; conditions: Human immunodeficiency virus 1, PBMC
HIV-1IIIB [16] = assay: qPCR determination of Late-RT, 2-LTR and Alu-LTR in infected C8166 cells; assay type: cell-based
[17] = target: HIV-1 mutant N155H integrase (Human immunodeficiency virus type 1 group M subtype B, UniProt P04585, N1302H); assay: biochemical; conditions: HIV-1N155H integrase, mean n = 4
[18] = Cytotoxicity MTT assay in PBMCs; assay type: cell-based; conditions: human, peripheral blood mononuclear cells (PBMCs), PBMC
[19] = Cytotoxicity MTT assay in MT4 cells; assay type: cell-based; conditions: human
HIV-1IIIB [20] = assay: HIV-1IIIB-induced cytopathic effect (syncytia counting) in C8166 cells
HIV-1_4755-5 [21] = assay: microbe, parasite or virus in culture; conditions: Human immunodeficiency virus 1, C8166
[22] = tested on: pNL4-3gp41(36G) V38A, N42T; conditions: C8166, p24
HIV-1TC-1 (CRF01_AE) [23] = assay: microbe, parasite or virus in culture; conditions: Human immunodeficiency virus 1, PBMC
[24] = p24 (Table 4, resistance study)

Nc1ccn([C@@H]2CS[C@H](CO)O2)c(=O)n1 [3TC, Lamivudine]
EC50 (HIV-1IIIB [1]; [24]): 181 ± 41.5 nM | EC50 (NL4-3IN-R263K): 180 ± 38.5 nM | EC50 (NL4-3): 198 ± 101 nM | DRI Value ED75 (HIV-1IIIB [2]; combination ACC017 + 3TC): 6.21 | DRI Value ED90 (HIV-1IIIB [2]; combination ACC017 + 3TC): 7.90 | DRI Value ED95 (HIV-1IIIB [2]; combination ACC017 + 3TC): 9.30 | DRI Value ED75 (HIV-1IIIB [2]; combination DTG + 3TC): 5.03 | DRI Value ED90 (HIV-1IIIB [2]; combination DTG + 3TC): 6.79 | DRI Value ED95 (HIV-1IIIB [2]; combination DTG + 3TC): 8.33 | EC50 (HIV-1DRACC017): 322 ± 34.6 nM | FC (Fold Change) EC50 (HIV-1DRACC017)/EC50 (HIV-1IIIB) (HIV-1DRACC017; p24): 1.78

CCn1c(C(=O)c2cc(C)cc(C#N)c2)c(C(C)C)c(=O)[nH]c1=O [ACC007, Ainuovirine]
DRI Value ED75 (HIV-1IIIB [2]; combination ACC017 + ACC007): 3.77 | DRI Value ED90 (HIV-1IIIB [2]; combination ACC017 + ACC007): 6.12 | DRI Value ED95 (HIV-1IIIB [2]; combination ACC017 + ACC007): 8.66 | DRI Value ED75 (HIV-1IIIB [2]; combination DTG + ACC007): 4.66 | DRI Value ED90 (HIV-1IIIB [2]; combination DTG + ACC007): 7.34 | DRI Value ED95 (HIV-1IIIB [2]; combination DTG + ACC007): 10.16

C[C@H]1N2C(=O)c3c(O)c(=O)c(C(=O)NCc4ccc(F)cc4F)cn3C[C@@H]2OCC12CC2 [ACC017]
SI (CC50/EC50) (HIV-1IIIB [3]; C8166, p24): 34,525.42 | Fold increase of EC50 in the presence of 20% human serum (HIV-1IIIB [3]; C8166, p24, with vs without 20% human serum): 14.03 fold | EC50 (drug-resistant strains): 0.34 to 9.12 nM | SI (CC50/EC50) (HIV-1WAN (CRF01_AE) [4]): 8561.80 | EC50 [5]: 0.11 to 1.78 nM | EC50 (HIV-1KIZ011 (CRF07_BC) [6]): 0.33 ± 0.06 nM | SI (CC50/EC50) (HIV-1KIZ011 (CRF07_BC) [7]): 46,181.82 | SI (CC50/EC50) (HIV-1A17 [8]): 2393.65 | EC50 (HIV-1IIIB [9]): 0.05147 ± 2e-05 nM | EC50 (HIV-1IIIB [1]; C8166, p24 (Table 1)): 0.59 ± 0.09 nM | EC50 (HIV-1IIIB [1]; C8166, p24, 20% human serum): 8.28 ± 2.02 nM | EC50 (HIV-1IIIB [1]; [24]): 1.25 ± 0.48 nM | CC50 at 3 d [10]: 20.37 ± 0.1 µM | Safety and tolerability [11]: favorable safety and tolerability profile | SI (CC50/EC50) (HIV-1_4755-5 [12]): 2233.55 | EC50 (NL4-3IN-R263K): 28.1 ± 4.22 nM | SI (CC50/EC50) (HIV-1TC-1 (CRF01_AE) [13]): 138,545.45 | EC50 (HIV-1A17 [14]): 8.51 ± 0.25 nM | EC50 (HIV-1WAN (CRF01_AE) [15]): 1.78 ± 0.29 nM | EC50 (NL4-3): 1.7 ± 0.47 nM | DRI Value ED75 (HIV-1IIIB [2]; combination ACC017 + 3TC): 5.25 | DRI Value ED90 (HIV-1IIIB [2]; combination ACC017 + 3TC): 9.07 | DRI Value ED95 (HIV-1IIIB [2]; combination ACC017 + 3TC): 13.15 | DRI Value ED75 (HIV-1IIIB [2]; combination ACC017 + ACC007): 4.07 | DRI Value ED90 (HIV-1IIIB [2]; combination ACC017 + ACC007): 6.48 | DRI Value ED95 (HIV-1IIIB [2]; combination ACC017 + ACC007): 8.97 | DRI Value ED75 (HIV-1IIIB [2]; combination ACC017 + ACC017): 1.77 and 3.46 | DRI Value ED90 (HIV-1IIIB [2]; combination ACC017 + ACC017): 2.06 and 2.77 | DRI Value ED95 (HIV-1IIIB [2]; combination ACC017 + ACC017): 2.32 and 2.42 | DRI Value ED75 (HIV-1IIIB [2]; combination ACC017 + DTG): 2.89 | DRI Value ED90 (HIV-1IIIB [2]; combination ACC017 + DTG): 2.45 | DRI Value ED95 (HIV-1IIIB [2]; combination ACC017 + DTG): 2.27 | DRI Value ED75 (HIV-1IIIB [2]; combination ACC017 + FTC + TAF): 4.62 | DRI Value ED90 (HIV-1IIIB [2]; combination ACC017 + FTC + TAF): 6.79 | DRI Value ED95 (HIV-1IIIB [2]; combination ACC017 + FTC + TAF): 9.05 | Late-RT level versus positive control (PC) group (HIV-1IIIB [16]; C8166, HIV-1IIIB MOI 0.5, 100 nM ACC017, 4-8 h): no significant difference compared with the PC group | 2-LTR level (nuclear entry) (HIV-1IIIB [16]; C8166, HIV-1IIIB MOI 0.5, 100 nM ACC017, 8, 12, 24 h): unable to block the nuclear entry process | Alu-LTR level (integrated provirus) (HIV-1IIIB [16]; C8166, HIV-1IIIB MOI 0.5, 100 nM ACC017, 24 h, nested PCR): significantly reduced | IC50 [17]: 9.91 nM | CC50 at 7 d [18]: 15.2 µM | CC50 at 3 d [19]: 24.8 ± 0.08 µM | SI (CC50/EC50) (HIV-1IIIB [20]; HIV-1IIIB, C8166, syncytia): 34,525.42 | EC50 (HIV-1IIIB [20]; Human immunodeficiency virus 1, C8166): 0.59 ± 0.09 nM | EC50 (HIV-1DRACC017): > 5000 nM | EC50 (HIV-1_4755-5 [21]): 9.12 ± 2.31 nM | EC50 [22]: 0.34 ± 0.09 nM | SI (CC50/EC50) [22]: 59,911.76 | EC50 (HIV-1TC-1 (CRF01_AE) [23]): 0.11 ± 0.06 nM
